In one experiment the test system is L929 cells. Description: L929 cell necroptosis assay (TNFa + zVAD, CellTiter-Glo). In kind it is cell-based, murine. An outline of the steps: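 Murine L929 cells, plated 18 h beforehand at 10K cells/well in RPMI 1640 with 10% FBS, were switched to medium containing 40 uM zVAD-fmk and given compound from 4-fold serial dilutions. Viability after 18 h of TNFa stimulation at 37° C was read by CellTiter-Glo luminescence.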

Another experiment relates to U937 cells. As to the kind of experiment: U937 cell necroptosis assay (TNFa + zVAD, CellTiter-Glo). In kind it is cell-based, human. An outline of the steps:
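Human U937 and murine L929 cells in RPMI 1640/10% FBS were pre-incubated 1 h at 37 °C with serially diluted compound plus zVAD-fmk (U937 plated with 60 uM, L929 medium with 40 uM), then stimulated with 2 ng/mL TNFa (final). Viability read by CellTiter-Glo luminescence after 18 h.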

In the next experiment the target is RIPK1 (Homo sapiens (Human), UniProt Q13546). As to the kind of experiment: RIPK1 ADP-Glo biochemical kinase assay. The note with it: read-out: RIPK1 ADP-Glo Kinase (IC50). As for the experimental part:
The final reaction volume was 5.0ul.
Adding 5 μl of ADP-Glo™ terminated the reaction.

[1] abbreviates: Mus musculus, L929, L929 cells, TNFa + zVAD, read-out: L929-CTG-recovery, L929, TNFa + zVAD (IC50).
The mark [2] stands for this setting: Homo sapiens, U-937, U937 cells, TNFa + zVAD, read-out: U937 Zvad TNF CTG Recovery, U937, TNFa + zVAD (IC50).
The mark [3] stands for this setting: Mus musculus, L929, read-out: L929-CTG-recovery, L929, TNFa + zVAD (IC50), L929 cells, TNFa + zVAD.
Where [4] appears, read: Homo sapiens, U-937, read-out: U937 Zvad TNF CTG Recovery, U937, TNFa + zVAD (IC50), U937 cells, TNFa + zVAD.

Structures are written as SMILES. Read-outs that look alike come from different tables or passages of the source.

Sequence of RIPK1 (Q13546 whole entry, species assumed): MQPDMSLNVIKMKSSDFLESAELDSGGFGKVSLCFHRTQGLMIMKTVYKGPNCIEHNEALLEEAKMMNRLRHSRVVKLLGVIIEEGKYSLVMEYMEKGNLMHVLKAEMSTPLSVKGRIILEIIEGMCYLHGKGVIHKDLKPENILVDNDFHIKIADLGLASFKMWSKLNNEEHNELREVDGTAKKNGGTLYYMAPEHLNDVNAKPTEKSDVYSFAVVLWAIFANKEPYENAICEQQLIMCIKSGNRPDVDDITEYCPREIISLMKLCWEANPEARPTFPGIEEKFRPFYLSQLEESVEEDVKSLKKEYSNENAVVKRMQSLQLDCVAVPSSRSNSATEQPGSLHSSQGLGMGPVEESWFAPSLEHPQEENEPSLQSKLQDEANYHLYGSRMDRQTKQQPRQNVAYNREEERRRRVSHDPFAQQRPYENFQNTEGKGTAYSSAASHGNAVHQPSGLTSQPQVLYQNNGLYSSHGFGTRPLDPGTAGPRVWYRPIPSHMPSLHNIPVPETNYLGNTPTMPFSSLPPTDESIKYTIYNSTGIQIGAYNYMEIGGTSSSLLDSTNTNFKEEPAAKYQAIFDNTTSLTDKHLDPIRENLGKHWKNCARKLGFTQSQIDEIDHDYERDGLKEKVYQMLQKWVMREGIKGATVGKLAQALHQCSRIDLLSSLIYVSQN

In the case of `CN1C(=O)[C@@H](NC(=O)c2ncn(Cc3ccccc3)n2)COc2cc(C#CC(C)(C)O)ccc21` [Compound I-62, (S)-1-benzyl-N-(8-(3-hydroxy-3-methylbut-1-yn-1-yl)-5-methyl-4-oxo-2,3,4,5-tetrahydrobenzo[b][1,4]oxazepin-3-yl)-1H-1,2,4-triazole-3-carboxamide], the IC50 was 0.7 nM with L929 cells (setting [1]), 2 nM in the experiment with U937 cells (setting [2]) and 35.5 nM at RIPK1.

Turning to `CN1C(=O)[C@@H](NC(=O)c2cc(Oc3ccccc3)ccn2)COc2ccc(C#CC3(O)CNC3)cc21` [Compound I-136, (S)—N-(7-((3-hydroxyazetidin-3-yl)ethynyl)-5-methyl-4-oxo-2,3,4,5-tetrahydrobenzo[b][1,4]oxazepin-3-yl)-4-phenoxypicolinamide], the IC50 with L929 cells (setting [1]) was 4970 nM; with U937 cells (setting [2]) it was 15.2 nM; on RIPK1 it was 26.7 nM.

Take `CN1C(=O)[C@@H](NC(=O)c2n[nH]c(Cc3ccccc3)n2)COc2ccc(C#CCCOc3ccc4ncccc4c3)cc21` [Compound I-38, (S)-5-benzyl-N-(5-methyl-4-oxo-7-(4-(quinolin-6-yloxy)but-1-yn-1-yl)-2,3,4,5-tetrahydrobenzo[b][1,4]oxazepin-3-yl)-1H-1,2,4-triazole-3-carboxamide]: the IC50 in the experiment on L929 cells (setting [1]) came to 0.5 nM; in the experiment on U937 cells (setting [2]) it was 3.6 nM; at RIPK1 it was 68 nM.

Regarding `CC(C)N1CC(O)(C#Cc2ccc3c(c2)N(C)C(=O)[C@@H](NC(=O)c2cc(Oc4ccccc4)ccn2)CO3)C1` [Compound I-195, (S)—N-(7-((3-hydroxy-1-isopropylazetidin-3-yl)ethynyl)-5-methyl-4-oxo-2,3,4,5-tetrahydrobenzo[b][1,4]oxazepin-3-yl)-4-phenoxypicolinamide], the IC50 with L929 cells (setting [3]) was determined as 268 nM; with U937 cells (setting [4]), 1.1 nM; on RIPK1 it was 15.3 nM.

With `CN1C(=O)[C@@H](NC(=O)c2cc(Oc3ccccc3)ccn2)COc2ccc(CCC(N)=O)cc21` [II-24, (S)—N-(7-(3-amino-3-oxopropyl)-5-methyl-4-oxo-2,3,4,5-tetrahydrobenzo[b][1,4]oxazepin-3-yl)-4-phenoxypicolinamide], the IC50 in the experiment on L929 cells (setting [3]) came to 7910 nM; in the experiment with U937 cells (setting [4]), 16.6 nM; on RIPK1 it was 56.3 nM.

As to `CN1C(=O)[C@@H](NC(=O)c2n[nH]c(Cc3ccc(F)cc3F)n2)COc2ccc(CCC(=O)N3CCCC3)cc21` [Compound I-34, (S)-5-(2,4-difluorobenzyl)-N-(5-methyl-4-oxo-7-(3-oxo-3-(pyrrolidin-1-yl)propyl)-2,3,4,5-tetrahydrobenzo[b][1,4]oxazepin-3-yl)-1H-1,2,4-triazole-3-carboxamide], the IC50 in the experiment on L929 cells (setting [1]) came out at 9590 nM; with U937 cells (setting [2]) it was 22.2 nM; on RIPK1, 49.2 nM.

On to `CN1C(=O)[C@@H](NC(=O)n2cc(Cc3ccc(F)cc3)cn2)COc2ccc(C#CC3(O)CCC3)cc21` [Compound I-221, (S)-4-(4-Fluorobenzyl)-N-(7-((l-hydroxycyclobutyl)ethynyl)-5-methyl-4-oxo-2,3,4,5-tetrahydrobenzo[b][1,4]oxazepin-3-yl)-1H-pyrazole-1-carboxamide], for which the IC50 with L929 cells (setting [1]) is 72.2 nM; in the experiment with U937 cells (setting [2]) it was 2.5 nM; on RIPK1, 39.7 nM.

In the case of `CN1C(=O)[C@@H](NC(=O)c2ncn(Cc3ccccc3)n2)COc2ccc(CCC(N)=O)cc21` [Compound I-32, (S)—N-(7-(3-amino-3-oxopropyl)-5-methyl-4-oxo-2,3,4,5-tetrahydrobenzo[b][1,4]oxazepin-3-yl)-1-benzyl-1H-1,2,4-triazole-3-carboxamide], the IC50 with L929 cells (setting [1]) was determined as 17700 nM; in the experiment with U937 cells (setting [2]), 2.7 nM; at RIPK1, 21.9 nM.

As for `C[C@H](NC(=O)OC(C)(C)C)C(=O)OCC(C)(C)C#Cc1ccc2c(c1)N(C)C(=O)[C@@H](NC(=O)c1cc(Oc3ccccc3)ccn1)CO2` [Compound I-141, tert-butyl ((S)-1-((2,2-dimethyl-4-((S)-5-methyl-4-oxo-3-(4-phenoxypicolinamido)-2,3,4,5-tetrahydrobenzo[b][1,4]oxazepin-7-yl)but-3-yn-1-yl)oxy)-1-oxopropan-2-yl)-12-azanecarboxylate], the IC50 in the experiment with L929 cells (L929 cells, TNFa + zVAD, read-out: L929-CTG-recovery, L929, TNFa + zVAD (IC50)) worked out at 120 nM; with U937 cells (U937 cells, TNFa + zVAD, read-out: U937 Zvad TNF CTG Recovery, U937, TNFa + zVAD (IC50)), 2.2 nM; on RIPK1 it was 414 nM.

On to `CCOC(=O)CCc1ccc2c(c1)N(C)C(=O)[C@@H](NC(=O)c1ncn(Cc3c(Cl)cccc3Cl)n1)CO2` [Compound I-8, Ethyl (S)-3-(3-(1-(2,6-dichlorobenzyl)-1H-1,2,4-triazole-3-carboxamido)-5-methyl-4-oxo-2,3,4,5-tetrahydrobenzo[b][1,4]oxazepin-7-yl)propanoate], for which the results for the IC50 in the experiment with L929 cells (setting [1]), in the experiment on U937 cells (setting [2]) and at RIPK1 were 9.2 nM, 1.4 nM and 52.9 nM, respectively.

As to `CN1C(=O)[C@@H](NC(=O)c2cc(Oc3ccccc3F)ccn2)COc2ccc(C#CC3(O)COC3)cc21` [Compound I-112, (S)-4-(2-fluorophenoxy)-N-(7-((3-hydroxyoxetan-3-yl)ethynyl)-5-methyl-4-oxo-2,3,4,5-tetrahydrobenzo[b][1,4]oxazepin-3-yl)picolinamide], the IC50 was determined as 14.2 nM in the experiment with L929 cells (setting [1]), 1.1 nM in the experiment on U937 cells (setting [2]) and 15.1 nM at RIPK1.

As for `CN1C(=O)[C@@H](NC(=O)c2n[nH]c(Cc3ccccc3)n2)COc2ccc(C#C[C@@]3(O)CO[C@@H]4[C@@H](OC(=O)c5ccccc5)CO[C@@H]43)cc21` [Compound I-74, (3S,3aR,6R,6aS)-6-(((S)-3-(5-benzyl-1H-1,2,4-triazole-3-carboxamido)-5-methyl-4-oxo-2,3,4,5-tetrahydrobenzo[b][1,4]oxazepin-7-yl)ethynyl)-6-hydroxyhexahydrofuro[3,2-b]furan-3-yl benzoate], the values for the IC50 in the experiment with L929 cells (setting [1]), in the experiment with U937 cells (setting [2]) and on RIPK1 were 0.2 nM, 1.4 nM and 51.8 nM, respectively.

As for `CN1C(=O)[C@@H](NC(=O)c2cc(Oc3ccccc3)ccn2)COc2ccc(C#CCN3CCOCC3)cc21` [Compound I-117, (S)—N-(5-methyl-7-(3-morpholinoprop-1-yn-1-yl)-4-oxo-2,3,4,5-tetrahydrobenzo[b][1,4]oxazepin-3-yl)-4-phenoxypicolinamide], the half-inhibitory concentration (IC50) with L929 cells (setting [1]) came to 11.2 nM; in the experiment with U937 cells (setting [2]) it was 0.2 nM; on RIPK1 it was 31.6 nM.

For the compound `CN1C(=O)[C@@H](NC(=O)c2cc(Oc3ccccc3)ccn2)COc2ccc(C#CCN3CCCC3)cc21` [Compound I-116, (S)—N-(5-methyl-4-oxo-7-(3-(pyrolidin-1-yl)prop-1-yn-1-yl)-2,3,4,5-tetrahydrobenzo[b][1,4]oxazepin-3-yl)-4-phenoxypicolinamide], the IC50 came out at 136 nM with L929 cells (setting [1]), 0.7 nM with U937 cells (setting [2]) and 23.4 nM on RIPK1.

In the case of `COC(=O)C#Cc1ccc2c(c1)N(C)C(=O)[C@@H](NC(=O)c1cc(Oc3ccccc3)ccn1)CO2` [Compound I-159, Methyl (S)-3-(5-methyl-4-oxo-3-(4-phenoxypicolinamido)-2,3,4,5-tetrahydrobenzo[b][1,4]oxazepin-7-yl)propiolate], the IC50 was 16100 nM with L929 cells (setting [1]), 21 nM with U937 cells (setting [2]) and 17.5 nM on RIPK1.

For `CN1C(=O)[C@@H](NC(=O)c2cc(Oc3ccccc3)ccn2)COc2ccc(C#CC3(O)CN(C(=O)C(F)(F)F)C3)cc21` [Compound I-151, (S)—N-(7-((3-hydroxy-1-(2,2,2-trifluoroacetyl)azetidin-3-yl)ethynyl)-5-methyl-4-oxo-2,3,4,5-tetrahydrobenzo[b][1,4]oxazepin-3-yl)-4-phenoxypicolinamide], the figures for the IC50 in the experiment on L929 cells (setting [3]), with U937 cells (setting [4]) and at RIPK1 were 1080 nM, 17 nM and 55.4 nM, respectively.

Regarding `CN1C(=O)[C@@H](NC(=O)c2ncn(Cc3ccccc3)n2)COc2ccc(C#CC3(O)CCC3)cc21` [Compound I-50, (S)-1-benzyl-N-(7-((1-hydroxycyclobutyl)ethynyl)-5-methyl-4-oxo-2,3,4,5-tetrahydrobenzo[b][1,4]oxazepin-3-yl)-1H-1,2,4-triazole-3-carboxamide], the IC50 in the experiment on L929 cells (Mus musculus, L929 cells, TNFa + zVAD, read-out: L929-CTG-recovery, L929, TNFa + zVAD (IC50)) was 0.3 nM; in the experiment with U937 cells (setting [2]), 1.1 nM; at RIPK1 it was 23.4 nM.

Turning to `CN1C(=O)[C@@H](NC(=O)c2n[nH]c(Cc3ccccc3)n2)COc2ccc(CN3CCn4c(nnc4C(F)(F)F)C3)cc21` [Compound I-47, (S)-5-benzyl-N-(5-methyl-4-oxo-7-((3-(trifluoromethyl)-5,6-dihydro-[1,2,4]triazolo[4,3-a]pyrazin-7(8H)-yl)methyl)-2,3,4,5-tetrahydrobenzo[b][1,4]oxazepin-3-yl)-1H-1,2,4-triazole-3-carboxamide], the half-maximal inhibitory concentration (IC50) in the experiment with L929 cells (setting [1]) stood at 1.5 nM; in the experiment with U937 cells (setting [2]) it was 4.6 nM; at RIPK1 it was 68.3 nM.

Consider `CN1C(=O)[C@@H](NC(=O)c2n[nH]c(Cc3ccccc3)n2)COc2ccc(/C=C/C(=O)NC3CC3)cc21` [Compound I-23, (S,E)-5-benzyl-N-(7-(3-(cyclopropylamino)-3-oxoprop-1-en-1-yl)-5-methyl-4-oxo-2,3,4,5-tetrahydrobenzo[b][1,4]oxazepin-3-yl)-1H-1,2,4-triazole-3-carboxamide], for which the IC50 with L929 cells (setting [1]) was 14500 nM; in the experiment on U937 cells (setting [2]) it was 6.7 nM; at RIPK1 it was 35.2 nM.

One may read the IC50 as the concentration that inhibits the measured activity by half.

Values taken from patent US11407736B2 (priority 2019, dated 2022).
